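1) Cells in 96-well plates. 2) Compound, 48 h, 5 concentrations. 3) Linear interpolation between surrounding doses. 4) Unreached endpoint = highest concentration. Definition used: TGI = concentration required for complete inhibition of growth.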
Experiments:
Experiment in all cases: growth of human tumour cells (NCI), 48 h
786-0 renal = tested on: 786-0 renal
A498 renal = tested on: A498 renal
A549 NSCLC = tested on: A549 NSCLC
ACHN renal = tested on: ACHN renal
CAKI-1 renal = tested on: CAKI-1 renal
CCRF-CEM leukemia = tested on: CCRF-CEM leukemia
COLO 205 colon = tested on: COLO 205 colon
DLD-1 colon = tested on: DLD-1 colon
DMS 114 small cell lung = tested on: DMS 114 small cell lung
DMS 273 small cell lung = tested on: DMS 273 small cell lung
EKVX NSCLC = tested on: EKVX NSCLC
HCC-2998 colon = tested on: HCC-2998 colon
HCT-116 colon = tested on: HCT-116 colon
HCT-15 colon = tested on: HCT-15 colon
HL-60(TB) leukemia = tested on: HL-60(TB) leukemia
HOP-18 NSCLC = tested on: HOP-18 NSCLC
HOP-62 NSCLC = tested on: HOP-62 NSCLC
HT29 colon = tested on: HT29 colon
IGROV1 ovarian = tested on: IGROV1 ovarian
K-562 leukemia = tested on: K-562 leukemia
KM12 colon = tested on: KM12 colon
KM20L2 colon = tested on: KM20L2 colon
LOX IMVI melanoma = tested on: LOX IMVI melanoma
LXFL 529 NSCLC = tested on: LXFL 529 NSCLC
M14 melanoma = tested on: M14 melanoma
MALME-3M melanoma = tested on: MALME-3M melanoma
MOLT-4 leukemia = tested on: MOLT-4 leukemia
NCI-H226 lung = tested on: NCI-H226 lung
NCI-H23 lung = tested on: NCI-H23 lung
NCI-H460 lung = tested on: NCI-H460 lung
NCI-H522 lung = tested on: NCI-H522 lung
OVCAR-3 ovarian = tested on: OVCAR-3 ovarian
OVCAR-4 ovarian = tested on: OVCAR-4 ovarian
OVCAR-5 ovarian = tested on: OVCAR-5 ovarian
OVCAR-8 ovarian = tested on: OVCAR-8 ovarian
RPMI-8226 leukemia = tested on: RPMI-8226 leukemia
RXF 393 renal = tested on: RXF 393 renal
SF-268 CNS = tested on: SF-268 CNS
SF-295 CNS = tested on: SF-295 CNS
SF-539 CNS = tested on: SF-539 CNS
SK-MEL-2 melanoma = tested on: SK-MEL-2 melanoma
SK-MEL-28 melanoma = tested on: SK-MEL-28 melanoma
SK-MEL-5 melanoma = tested on: SK-MEL-5 melanoma
SK-OV-3 ovarian = tested on: SK-OV-3 ovarian
SN12C renal = tested on: SN12C renal
SNB-19 CNS = tested on: SNB-19 CNS
SNB-75 CNS = tested on: SNB-75 CNS
SNB-78 CNS = tested on: SNB-78 CNS
SR leukemia = tested on: SR leukemia
SW-620 colon = tested on: SW-620 colon
U251 CNS = tested on: U251 CNS
UACC-257 melanoma = tested on: UACC-257 melanoma
UACC-62 melanoma = tested on: UACC-62 melanoma
UO-31 renal = tested on: UO-31 renal
HOP-92 NSCLC = tested on: HOP-92 NSCLC
M19-MEL melanoma = tested on: M19-MEL melanoma
TK-10 renal = tested on: TK-10 renal

Measured: TGI

O=C(O)\C=C/C=C/C=C/C=C/C(=O)O
> 100 µM: 786-0 renal | A498 renal | A549 NSCLC | ACHN renal | CAKI-1 renal | CCRF-CEM leukemia | COLO 205 colon | DLD-1 colon | DMS 114 small cell lung | DMS 273 small cell lung | EKVX NSCLC | HCC-2998 colon | HCT-116 colon | HCT-15 colon | HL-60(TB) leukemia | HOP-18 NSCLC | HOP-62 NSCLC | HT29 colon | IGROV1 ovarian | K-562 leukemia | KM12 colon | KM20L2 colon | LOX IMVI melanoma | LXFL 529 NSCLC | M14 melanoma | MALME-3M melanoma | MOLT-4 leukemia | NCI-H226 lung | NCI-H23 lung | NCI-H460 lung | NCI-H522 lung | OVCAR-3 ovarian | OVCAR-4 ovarian | OVCAR-5 ovarian | OVCAR-8 ovarian | RPMI-8226 leukemia | RXF 393 renal | SF-268 CNS | SF-295 CNS | SF-539 CNS | SK-MEL-2 melanoma | SK-MEL-28 melanoma | SK-MEL-5 melanoma | SK-OV-3 ovarian | SN12C renal | SNB-19 CNS | SNB-75 CNS | SNB-78 CNS | SR leukemia | SW-620 colon | U251 CNS | UACC-257 melanoma | UACC-62 melanoma | UO-31 renal

C/C(=N\NC(=O)C[n+]1ccccc1)c1sc(-c2nc(C)c(/C(C)=N/NC(=O)C[n+]3ccccc3)s2)nc1C
> 100 µM: 786-0 renal | A498 renal | A549 NSCLC | ACHN renal | CAKI-1 renal | COLO 205 colon | DLD-1 colon | DMS 114 small cell lung | EKVX NSCLC | HCC-2998 colon | HCT-116 colon | HCT-15 colon | HOP-62 NSCLC | HOP-92 NSCLC | HT29 colon | IGROV1 ovarian | K-562 leukemia | KM12 colon | KM20L2 colon | LOX IMVI melanoma | LXFL 529 NSCLC | M14 melanoma | M19-MEL melanoma | MALME-3M melanoma | MOLT-4 leukemia | NCI-H226 lung | NCI-H23 lung | NCI-H460 lung | OVCAR-3 ovarian | OVCAR-5 ovarian | OVCAR-8 ovarian | RPMI-8226 leukemia | RXF 393 renal | SF-268 CNS | SF-295 CNS | SF-539 CNS | SK-MEL-2 melanoma | SK-MEL-28 melanoma | SK-MEL-5 melanoma | SK-OV-3 ovarian | SN12C renal | SNB-19 CNS | SNB-75 CNS | SNB-78 CNS | SW-620 colon | TK-10 renal | U251 CNS | UACC-257 melanoma | UACC-62 melanoma | UO-31 renal

Reference: PubChem BioAssay (NCI)
